This note sets out measurements from ChEMBL document CHEMBL1201862, “PubChem BioAssay data set” (2004).

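1) Cells in 96-well plates. 2) Compound, 48 h, 5 concentrations. 3) Linear interpolation between surrounding doses. 4) Unreached endpoint = highest concentration. Abbreviation: GI50, concentration required for 50% inhibition of growth.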 Calls of active or inactive are those of the source. No stated cut-off is given here; in the data, active = GI50 up to about 1.1 µM and inactive = higher.

Some test systems named below: CCRF-CEM; BT-549; T47D; A498; SF-268; NCI/ADR-RES; A549; OVCAR-4; MOLT-4; PC-3; U-251; OVCAR-5; Hs-578T; 786-0; OVCAR-8; RXF 393; EKVX; UO-31; CAKI-1; HCT-116.
Common to all, as to assay: NCI tumour cell line growth inhibition, 48 h

Turning to `CCCC(=O)N(C(=O)CCC)C1=C(Cl)C(=O)c2ccccc2C1=O`, the GI50 with CCRF-CEM is 2.09 µM (inactive); with BT-549, 3.41 µM (inactive); in the test on T47D, 2.33 µM (inactive); in the test with A498, 18.3 µM (inactive); in the test with SF-268, 4.32 µM (inactive); in the test with NCI/ADR-RES, 3.86 µM (inactive). The GI50 is 6.73 µM (inactive) in the test on A549; 5.52 µM (inactive) with OVCAR-4; 3.25 µM (inactive) in the test on MOLT-4; 4.06 µM (inactive) with PC-3; 4.08 µM (inactive) with U-251; 7.67 µM (inactive) in the test on OVCAR-5. Moreover, the GI50 was 8.04 µM (inactive) with Hs-578T; 9.98 µM (inactive) in the test on 786-0; 6.25 µM (inactive) with OVCAR-8; 2.17 µM (inactive) with RXF 393; 5.36 µM (inactive) with EKVX; 1.62 µM (inactive) in the test with UO-31. The GI50 in the test on CAKI-1 is 2.24 µM (inactive); with HCT-116 it was 2.72 µM (inactive).

Take `Cc1cc(O)c2c(c1)C[C@@H](O)C1=C2C(=O)c2c(O)ccc(OC3CC(O)C(OC4CC(OC5CCC(OC6CC(O)C(OC7CC(OC8CCC(O)C(C)O8)C(O)C(C)O7)C(C)O6)C(C)O5)C(O)C(C)O4)C(C)O3)c2C1=O` (stereo not given in full): the GI50 was 0.0531 µM (active) with CCRF-CEM; 0.327 µM (active) with BT-549; 0.167 µM (active) in the test with T47D; 0.373 µM (active) with A498; 0.0243 µM (active) in the test with SF-268; 0.0308 µM (active) with NCI/ADR-RES. Further, the GI50 in the test with A549 was 0.302 µM (active); in the test on OVCAR-4 it was 0.0179 µM (active); in the test on MOLT-4 it was 0.0352 µM (active); in the test with PC-3, 0.223 µM (active); with U-251 it was 0.0387 µM (active); in the test on OVCAR-5 it was 0.128 µM (active). Moreover, the GI50 in the test with Hs-578T is 0.0311 µM (active); in the test on 786-0, 0.0644 µM (active); in the test with OVCAR-8, 0.0224 µM (active); with RXF 393, 0.0687 µM (active); with EKVX, 0.112 µM (active); in the test on UO-31 it was 0.156 µM (active). In addition, the GI50 is 0.138 µM (active) with CAKI-1 and 0.0492 µM (active) in the test with HCT-116.

On to `O=C1Nc2ccccc2/C1=N/Nc1ccc([N+](=O)[O-])cc1[N+](=O)[O-]`, for which the GI50 is > 100 µM (inactive) in the test with CCRF-CEM; 12.1 µM (inactive) in the test with BT-549; 15.7 µM (inactive) in the test with T47D; 22.4 µM (inactive) in the test on A498; 20.9 µM (inactive) in the test with SF-268; 8.09 µM (inactive) in the test on NCI/ADR-RES. Also, the GI50 in the test on A549 was 12.5 µM (inactive); in the test on OVCAR-4, 10 µM (inactive); in the test on MOLT-4, > 100 µM (inactive); with PC-3, 12.9 µM (inactive); in the test on U-251, 8.87 µM (inactive); with OVCAR-5 it was 12.6 µM (inactive). In addition, the GI50 in the test with Hs-578T is 6.37 µM (inactive); with 786-0, 9.25 µM (inactive); in the test on OVCAR-8, 9.59 µM (inactive); in the test on RXF 393 it was 13.6 µM (inactive); with EKVX it was 1.5 µM (inactive); in the test on UO-31, 13.2 µM (inactive). Besides, the GI50 in the test on CAKI-1 is 20.4 µM (inactive); in the test on HCT-116 it was 17.9 µM (inactive).
